Measurements from patent US20090104335A1, “Healthy Food Product” (priority 2006, published 2009).

test: Effect of peptides on incorporation of cholesterol (NBD-cholesterol) into mixed micelles; settings: Table 3, effect of charge; peptides 1 mg/ml; BA-mix in PBS pH 6.5; micelles without peptide = 100%
Method: To form mixed micelles in vitro, 0.1 mM lecithin, 0.05 mM monoolein, 0.1 mM oleic acid and 80 μM cholesterol are mixed in a test tube and dried under a stream of N2. After drying, a 2 mM bile acid mix (BA-mix) in PBS pH 6.5 is added to this lipid mixture. Fluorescent labelled cholesterol (NBD-cholesterol) is used to monitor the incorporation of cholesterol into the mixed micelles.
For testing, peptides (1 mg/ml) are added to the BA-mix and then mixed with lipid-mixtures as described. The whole mixture is vortexed for 15 seconds, followed by an ultrasonic treatment in a waterbath for 30 minutes. From this mixture a sample is taken to measure total NBD-cholesterol concentration. The remaining micelle solution is centrifuged in a table-top ultracentrifuge at 50.000 g for 30 minutes at room temperature.
After centrifugation, samples from the supernatant are taken for the determination of solubilized NBD-cholesterol, which indicates the amount of cholesterol incorporated into mixed micelles. The pellet containing crystallised cholesterol is discarded. NBD-cholesterol is measured at 375/465 nm using a fluorescence plate reader.
Mixed micelle mixtures containing no peptides are used as control (100%). For each example the percentage of incorporated Cholesterol is calculated by dividing the amount of incorporated cholesterol for the tested composition by the amount of incorporated cholesterol in the control sample.

Substance | Incorporated CH (% control = 80 μM cholesterol)
DDDDDD [reference compound] | 136.8 % control
EAEWEY [reference compound] | 81.3 % control
KKKKKK | 19.9 % control
RARWRY | 19.3 % control
RRRRRR | 14.8 % control
VEWEME [reference compound] | 68.4 % control
VRWRMR | 26.2 % control

same assay, conditions: Table 4, effect of length; peptides 1 mg/ml; BA-mix in PBS pH 6.5; micelles without peptide = 100%

Substance | Incorporated CH (% control = 80 μM cholesterol)
RRRR | 32.8 % control
RRRRRR | 10.3 % control
RRRRRRRR [octa-peptide RRRRRRRR, net charge +8] | 8.8 % control
